{
  "source": "paper PMC11355249",
  "about": "“In Silico Identification and Molecular Mechanism of Novel Tyrosinase Inhibitory Peptides Derived from Nacre of Pinctada martensii” (Marine Drugs, 2024)",
  "key": {"[1]": {"molecular_target": "T1, tyrosinase (from Mushroom) (Agaricus bisporus, UniProt C7FF04)", "T1 sequence (C7FF04 1-392)": "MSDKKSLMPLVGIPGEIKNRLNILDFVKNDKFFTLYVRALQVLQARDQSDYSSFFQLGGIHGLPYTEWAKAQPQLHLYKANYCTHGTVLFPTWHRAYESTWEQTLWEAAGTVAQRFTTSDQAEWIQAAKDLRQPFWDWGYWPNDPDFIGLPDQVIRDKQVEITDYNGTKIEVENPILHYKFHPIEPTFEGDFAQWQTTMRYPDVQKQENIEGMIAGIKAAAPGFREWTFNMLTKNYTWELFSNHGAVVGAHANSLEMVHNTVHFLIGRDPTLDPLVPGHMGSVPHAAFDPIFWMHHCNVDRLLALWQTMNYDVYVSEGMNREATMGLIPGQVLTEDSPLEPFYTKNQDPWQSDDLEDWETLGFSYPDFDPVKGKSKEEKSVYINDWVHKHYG", "type": "biochemical", "details": "read-out: IC50 (mM), tyrosinase activity", "description": "(§1) We followed the method of Yu, with a slight modification. L-tyrosine solution (0.5 mg/mL), sample solution, and PBS buffer were sequentially added into the 96-well plate, thoroughly mixed, and then incubated at 37 °C for 10 min, then 20 μL of tyrosinase solution (500 U/mL) was added into each well, followed by immediate placement into the enzyme marker after the reaction at 37 °C for (10 min ± 5 s). The results were analyzed at 475 nm. DPPH and ABTS free-radical-scavenging capacity assays were conducted using kits from Grace Biotechnology Co., Ltd. (Jiangsu, China)."}, "B16F10 cells [2]": {"test_system": "B16F10 cells", "test": "Cell viability, CCK-8 assay", "type": "cell-based, mouse", "details": "15–1200 μM, 48 h", "description": "The B16F10 cells were obtained from FengHui Biotechnology Co., Ltd. (Hunan, China). B16F10 cell cultures from generations 10–25 were grown in medium (DMEM supplemented with 10% fetal bovine serum, 1% antibiotic–antifungal solution) in a 5% CO2 incubator at 37 °C.\nCell viability was assessed using the Cell Counting Kit-8 (CCK-8) assay. During the logarithmic growth phase, 100 µL of cell suspension was dispensed into 96-well plates, with 3000 cells per well, and the supernatant was removed after incubation at 37 °C for 24 h. Wells containing 100 µL of medium served as blank controls. Determination of viability after 48 h of sample treatment."}, "[3]": {"molecular_target": "T1, tyrosinase (from Mushroom)", "test": "Inhibition kinetics, Lineweaver-Burk double inverse plot and secondary plots", "type": "biochemical", "details": "read-out: inhibition constant on the free enzyme, Ki; substrate L-tyrosine; peptide 0, 0.3, 0.6, 1.2 mM", "from_the_text": "Based on the observation that the inhibition of tyrosinase by the synthetic peptide AHYYD was reversible, the type of inhibition was further elucidated by constructing a Lineweaver–Burk double inverse plot of the enzymatic reaction rate against the concentration of the substrate (L-tyrosine). In this plot, the intercept with the Y-axis represents 1/Vmax, while the intercept with the X-axis represents −1/Km. […] The slope of the line increased with the rise in synthetic peptide concentration, indicating a mixed type of inhibition. By using the quadratic plotting method, the slopes of the four straight lines in the Lineweaver–Burk double inverse plot were plotted against the synthetic peptide concentration.\nKeeping the L-tyrosine concentration constant at 0.5 mg/mL, the concentrations of the synthetic peptide and tyrosinase were varied. The change in the OD475 absorbance value was continuously monitored at 37 °C after mixing. The enzyme concentration is plotted on the horizontal axis, while the rate of absorbance change is plotted on the vertical axis. Under the conditions of varying the peptide concentration and substrate concentration while keeping the tyrosinase solution constant, the reciprocal of the substrate concentration was plotted on the horizontal axis, and the reciprocal of the rate of absorbance change was plotted on the vertical ax."}, "[4]": {"test_system": "melanin content of B16F10 cells", "test": "Melanin content determination", "type": "cell-based, mouse", "details": "B16F10, Kojic acid 350 μM, 48 h", "description": "The cell culture stage for melanin content determination was as follows: the cells were washed twice with PBS buffer after 48 h of peptide treatment. Trypsin digestion was performed, and the cells were collected. The […] was removed by centrifugation for 5 min and the precipitate was lysed by dissolving it in 1 mol/L NaOH containing 10% DMSO for 1 h at 80 °C. Subsequently, the cell lysate was centrifuged at 12,000 rpm for 10 min. A total of 200 µL of the supernatant was transferred to a 96-well plate, and the absorbance was measured at 405 nm. The melanin content was then expressed as a percentage of the control group."}, "[5]": {"test_system": "tyrosinase activity in B16F10 cells", "test": "Intracellular tyrosinase activity (L-DOPA, 475 nm)", "type": "cell-based, mouse", "details": "B16F10, Kojic acid 350 μM, 48 h", "description": "The cells in the logarithmic growth phase were seeded at a density of 2 × 10^5 cells per well in 6-well plates. After 24 h of culture, the supernatant was removed. […] After 48 h of incubation, the cells were lysed, and the cell lysates were centrifuged at 12,000 rpm for 10 min. The reaction mixture consisted of 50 µL of cell lysate supernatant, 50 µL of 1 mg/mL L-DOPA, and 50 µL of PBS buffer. The mixture was incubated at 37 °C for 1 h. The […] formation level was then measured spectrophotometrically at 475 nm. Tyrosinase activity was expressed as a percentage of the blank control."}, "B16F10 cells [6]": {"test_system": "B16F10 cells", "test": "Antioxidant enzyme activity (CAT, GSH-Px, SOD) by kit", "type": "cell-based, mouse", "details": "B16F10, positive control 350 μM", "description": "(§2) The cell culture and treatment methods were the same as those described in Section 3.12. The activities of catalase (CAT), glutathione peroxidase (GSH-Px), and superoxide dismutase (SOD) were determined using the assay kit from Nanjing Jianjian Bioengineering Research Institute (Nanjing, China). The ROS content was determined using the method provided by Biyuntian Bio-Technology Company Limited (Shanghai, China)."}, "B16F10 cells [7]": {"test_system": "B16F10 cells", "test": "Intracellular ROS content", "type": "cell-based, mouse", "details": "B16F10, 75 μM", "description": "as §2"}, "[8]": {"test": "ABTS free-radical-scavenging capacity assay (kit)", "details": "synthetic peptides", "description": "as §1"}},
  "note": "Like-named read-outs stand apart in the source and are kept apart here. Peptide text beside a SMILES is read from it.",
  "data": [
    {"smiles": "C[C@H](N)C(=O)N[C@@H](Cc1c[nH]cn1)C(=O)N[C@@H](Cc1ccc(O)cc1)C(=O)N[C@@H](Cc1ccc(O)cc1)C(=O)N[C@@H](CC(=O)O)C(=O)O", "note": "[AHYYD, Ala-His-Tyr-Tyr-Asp] (H-AHYYD-OH)", "values": [
      {"measurement": "IC50", "setting": "[1]", "value": "2.01 ± 0.088", "unit": "mM"},
      {"measurement": "viability of B16F10 cells compared to the control group", "setting": "B16F10 cells [2]", "value": "no significant difference"},
      {"measurement": "Ki", "setting": "[3]", "value": 601, "unit": "µM"}
    ]},
    {"smiles": "O=c1cc(CO)occ1O", "note": "[Kojic acid]", "values": [
      {"measurement": "reduction of intracellular melanin content", "setting": "[4]", "value": 18.54, "unit": "%"},
      {"measurement": "reduction of intracellular tyrosinase activity", "setting": "[5]", "value": 19.51, "unit": "%"},
      {"measurement": "increase of GSH-Px activity", "setting": "B16F10 cells [6]", "value": 52.85, "unit": "%"},
      {"measurement": "increase of SOD activity", "setting": "B16F10 cells [6]", "value": 68.92, "unit": "%"}
    ]},
    {"smiles": "CC1=C(/C=C/C(C)=C/C=C/C(C)=C/C(=O)O)C(C)(C)CCC1", "note": "[tretinoin]", "values": [
      {"measurement": "intracellular ROS levels, % of the untreated group", "setting": "B16F10 cells [7]", "value": 65.44, "unit": "%"}
    ]},
    {"smiles": "C[C@@H](O)[C@H](N)C(=O)N[C@@H](Cc1ccccc1)C(=O)N[C@@H](CO)C(=O)NCC(=O)N[C@@H](CC(N)=O)C(=O)N[C@@H](Cc1ccc(O)cc1)C(=O)N1CCC[C@H]1C(=O)O", "note": "[TFSGNYP, Thr-Phe-Ser-Gly-Asn-Tyr-Pro] (H-TFSGNYP-OH)", "values": [
      {"measurement": "IC50 for ABTS clearance", "setting": "[8]", "value": 278.5, "unit": "µg/mL"},
      {"measurement": "IC50", "setting": "[1]", "value": "> 5", "unit": "mM"}
    ]},
    {"smiles": "CC[C@H](C)[C@H](NC(=O)[C@@H]1CCCN1C(=O)[C@@H](N)CCCCN)C(=O)N[C@@H](Cc1c[nH]c2ccccc12)C(=O)N[C@H](C(=O)O)[C@@H](C)O", "note": "[KPIWT, Lys-Pro-Ile-Trp-Thr] (H-KPIWT-OH; N-terminus and C-terminus assumed)", "values": [
      {"measurement": "IC50", "setting": "[1]; synthetic peptides, Kojic acid positive control", "value": "> 10", "unit": "mM"}
    ]}
  ]
}
